Several values for one entry are separate records, joined by “and”; a condition that tells them apart may be missing. Identical values can stand only once. Counter-ions that a name gives are not always drawn. Like-named read-outs stand apart in the source and are kept apart here.
Columns and labels:
[1] = target: T1, GHSR-1a (HEK293/GHSR1a cell line) (Homo sapiens, UniProt Q92847); test: Ghrelin antagonist potency (IC50) with calcium FLIPR assay, ghrelin 10 nM; format: cell-based; details: ghrelin antagonist potency
T1 construct: expressed in transfected cells; host or cells: HEK293/GHSR1a cell line
T1 sequence (Q92847 whole entry): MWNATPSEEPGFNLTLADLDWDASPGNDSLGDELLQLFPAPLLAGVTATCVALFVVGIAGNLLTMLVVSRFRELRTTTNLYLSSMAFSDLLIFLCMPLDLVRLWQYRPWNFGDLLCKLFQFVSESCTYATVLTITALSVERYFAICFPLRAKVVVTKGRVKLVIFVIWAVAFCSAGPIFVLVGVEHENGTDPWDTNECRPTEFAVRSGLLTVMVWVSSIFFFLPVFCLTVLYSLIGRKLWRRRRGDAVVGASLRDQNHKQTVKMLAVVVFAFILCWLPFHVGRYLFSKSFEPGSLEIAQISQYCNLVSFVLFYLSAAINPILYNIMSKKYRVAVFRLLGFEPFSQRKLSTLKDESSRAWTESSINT
How it was run: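 Potency values were estimated from dose-response curves of relative fluorescence, with calcium followed for 2 minutes after additions at t=20 sec. Agonism was tested with compound alone. Antagonism was tested with compound plus 10 nM ghrelin and scored as a reduction of the ghrelin signal.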

[2] = target: T2, recombinant human ghrelin receptor (HEK293/GRLN) (Homo sapiens, UniProt Q92847); test: Ghrelin inverse agonist potency (EC50) with IP-1 (IP-One HTRF) assay; format: cell-based; details: IP-1 assay
T2 construct: expressed in transfected cells
T2 sequence (Q92847 whole entry): as above
Protocol: Evaluation of Ghrelin Inverse Agonist Potency (EC50) with IP-1 Assay:
HEK293 cells stably expressing recombinant human ghrelin receptor (HEK293/GRLN) were used in the IP-One HTRF assay. One day before the test, cells were seeded at a density of 1.5×10^4/well in a Matrigel® coated 384-well plate with 30 μL of complete Dulbecco's Modified Eagle's Medium and incubated at 37° C. in 5% CO2 for 18-22 hours. On the test day, the medium was removed by centrifugation at 600 rpm for 30 seconds, and 20 μL of stimulation buffer containing 1x tested compound was added with Bravo (Agilent technologies). The plate was then incubated at 37° C. 5% CO2 for 1 hour. After the incubation, 5 μL of IP1-d2 and 5 μL of Tb-Cryp were added to all wells using multidrop Combi(Thermo). After additional incubation at room temperature for 1 hour, the plates were read on Envision with 620 and 665 (Perkin Elmer).

[3] = inverse agonist potency, read-out: EC50 (Activity)

Structure (SMILES) | IC50 ([1]; read-out: Activity IC50) [nM] | EC50 ([2]; ghrelin inverse agonist potency, read-out: Activity EC50) [nM] | IC50 ([1]; read-out: IC50 (Activity)) [nM] | EC50 [2, 3]
CC(c1ccccc1)N(O)C(=O)Nc1ccc(S(=O)(=O)Cc2ccc3c(c2)CNC3)cc1 (stereo not drawn) [H1526, 1-hydroxy-3-(4-((isoindolin-5-ylmethyl)sulfonyl)phenyl)-1-(1-phenylethyl)urea] | 31.9 | 21.9 | – | –
CC(NC(=O)Nc1ccc(S(=O)(=O)Nc2ccc(CO)cc2)cc1)c1cccc2ccccc12 (stereo not drawn) [H1133, N-(4-(hydroxymethyl)phenyl)-4-(3-(1-(naphthalen-1-yl)ethyl)ureido) benzenesulfonamide] | – | – | 419 | 170 nM
O=C(NCc1cccc(Cl)c1Cl)Nc1ccc(S(=O)(=O)Cc2ccc3c(c2)CCNC3)cc1 [H1040, 1-(2,3-dichlorobenzyl)-3-(4-(((1,2,3,4-tetrahydroisoquinolin-6-yl)methyl)sulfonyl)phenyl)urea] | – | – | 31.8 | 164 nM
C[C@H](NC(=O)Nc1ccc(S(=O)(=O)Cc2ccc3c(c2)COC3)cc1)c1cccc(Cl)c1Cl [H1098, (S)-1-(1-(2,3-dichlorophenyl)ethyl)-3-(4-(((1,3-dihydroisobenzofuran-5-yl)methyl)sulfonyl)phenyl)urea] | – | – | 12100 | 649 nM
COc1ccc([C@H](C)NC(=O)Nc2ccc(S(=O)(=O)Nc3ccc4c(c3)CCN(C(C)=O)C4)cc2)c(Cl)c1Cl [H1034, (S)-N-(2-acetyl-1,2,3,4-tetrahydroisoquinolin-6-yl)-4-(3-(1-(2,3-dichloro-4-methoxyphenyl)ethyl)ureido) benzenesulfonamide] | – | – | 1260 | 1610 nM
C[C@H](NC(=O)Nc1ccc(S(=O)(=O)Nc2ccc(CC(C)(C)N)cc2)cc1)c1ccc(C#CC2CC2)c(Cl)c1Cl [H0907, (S)-N-(4-(2-amino-2-methylpropyl)phenyl)-4-(3-(1-(2,3-dichloro-4-(cyclopropylethynyl)phenyl)ethyl)ureido)benzenesulfonamide] | – | – | 23.5 | 1610 nM
CCN1Cc2ccc(C(C)(C)S(=O)(=O)c3ccc(NC(=O)NC(C)c4ccccc4)cc3)cc2C1 (stereo not drawn) [H1232, 1-(4-((2-(2-ethylisoindolin-5-yl)propan-2-yl)sulfonyl)phenyl)-3-(1-phenylethyl)urea] | – | – | > 30000 | 310 nM
CC(NC(=O)Nc1ccc(S(=O)(=O)Cc2ccc(CO)cc2)cc1)c1cccc2ccccc12 (stereo not drawn) [H1132, 1-(4-((4-(hydroxymethyl)benzyl)sulfonyl)phenyl)-3-(1-(naphthalen-1-yl)ethyl)urea] | – | – | 574 | 219 nM
C[C@H](NC(=O)Nc1ccc(S(=O)(=O)Nc2ccc3c(c2)CNCC3)cc1)c1cccc(Cl)c1Cl [H1049, (S)-4-(3-(1-(2,3-dichlorophenyl)ethyl)ureido)-N-(1,2,3,4-tetrahydroisoquinolin-7-yl)benzenesulfonamide] | – | – | 16.3 | 29.6 nM
O=C(NC(=O)c1cc(N2CCOCC2)ccc1Cl)Nc1ccc(S(=O)(=O)Cc2ccc3c(c2)CNC3)cc1 [H1249, 2-chloro-N-((4-((isoindolin-5-ylmethyl)sulfonyl)phenyl)carbamoyl)-5-morpholinobenzamide] | – | – | 3290 | 1630 nM
COCc1ccc(CS(=O)(=O)c2ccc(NC(=O)N[C@@H](C)c3cccc(Cl)c3Cl)cc2)cc1 [H1093, (S)-1-(1-(2,3-dichlorophenyl)ethyl)-3-(4-((4-(methoxymethyl)benzyl)sulfonyl)phenyl)urea] | – | – | 2380 | 327 nM
CC(c1ccc2c(c1)CCNC2)S(=O)(=O)c1ccc(NC(=O)N[C@@H](C)c2cccc(Cl)c2Cl)cc1 (stereo partly drawn) [H1102, 1-((S)-1-(2,3-dichlorophenyl)ethyl)-3-(4-((1-(1,2,3,4-tetrahydroisoquinolin-6-yl)ethyl)sulfonyl)phenyl)urea hydrochloride] | – | – | 73.9 | 58.3 nM and 21.6 nM
O=C(Nc1ccccc1)Nc1ccc(S(=O)(=O)Cc2ccc3c(c2)CNC3)cc1 [H1190, 1-(4-((isoindolin-5-ylmethyl)sulfonyl)phenyl)-3-phenylurea] | – | – | 264 | 317 nM
C[C@H](NC(=O)Nc1ccc(S(=O)(=O)Cc2cnc(N)nc2)cc1)c1cccc(Cl)c1Cl [H1130, (S)-1-(4-(((2-aminopyrimidin-5-yl)methyl)sulfonyl)phenyl)-3-(1-(2,3-dichlorophenyl)ethyl)urea] | – | – | 3380 | 1280 nM
C[C@H](NC(=O)Nc1ccc(S(=O)(=O)Nc2ccc3[nH]ccc3c2)cc1)c1cccc(Cl)c1Cl [H0991, (S)-4-(3-(1-(2,3-dichlorophenyl)ethyl)ureido)-N-(1H-indol-5-yl)benzenesulfonamide] | – | – | 146 | 66.8 nM
C[C@H](NC(=O)Nc1ccc(S(=O)(=O)Nc2ccc3c(c2)CCNC3)cc1)c1ccc(-c2cnccn2)c(Cl)c1Cl [H1006, (S)-4-(3-(1-(2,3-dichloro-4-(pyrazin-2-yl)phenyl)ethyl)ureido)-N-(1,2,3,4-tetrahydroisoquinolin-6-yl)benzenesulfonamide] | – | – | 72 | 36.9 nM
CCNC(=O)Nc1ccc(S(=O)(=O)Cc2ccc3c(c2)CNC3)cc1 [H1180, 1-ethyl-3-(4-((isoindolin-5-ylmethyl)sulfonyl)phenyl)urea] | – | – | 14700 | 315 nM
C[C@H](NC(=O)Nc1ccc(S(=O)(=O)Cc2ccc(CN)cc2)cc1)c1cccc(Cl)c1Cl [H1051, (S)-1-(4-((4-(aminomethyl)benzyl)sulfonyl)phenyl)-3-(1-(2,3-dichlorophenyl)ethyl)urea] | – | – | 53.7 | 116 nM
CCOC(=O)N1CCc2cc(CS(=O)(=O)c3ccc(NC(=O)N[C@@H](C)c4cccc(Cl)c4Cl)cc3)ccc2C1 [H1055, ethyl (S)-6-(((4-(3-(1-(2,3-dichlorophenyl)ethyl)ureido)phenyl)sulfonyl)methyl)-3,4-dihydroisoquinoline-2(1H)-carboxylate] | – | – | 4470 | 516 nM
C[C@H](NC(=O)Nc1ccc(S(=O)(=O)Cc2ccc3c(c2)CCN(Cc2ccccc2)C3)cc1)c1cccc(Cl)c1Cl [H1072, (S)-1-(4-(((2-benzyl-1,2,3,4-tetrahydroisoquinolin-6-yl)methyl)sulfonyl)phenyl)-3-(1-(2,3-dichlorophenyl)ethyl)urea] | – | – | 123 | 21.9 nM
C[C@H](NC(=O)Nc1ccc(S(=O)(=O)Cc2ccc3c(c2)CCNC3)cc1)c1ccccc1 [H1028, (S)-1-(1-phenylethyl)-3-(4-(((1,2,3,4-tetrahydroisoquinolin-6-yl)methyl)sulfonyl)phenyl)urea] | – | – | 414 | 234 nM
CC(NC(=O)Nc1ccc(S(=O)(=O)C(C)c2ccc3c(c2)CN(Cc2ccccc2)C3)cc1)c1ccccc1 (stereo not drawn) [H1233, 1-(4-((1-(2-benzylisoindolin-5-yl)ethyl)sulfonyl)phenyl)-3-(1-phenylethyl)urea] | – | – | 225 | 170 nM
O=C(NCc1ccccc1)Nc1ccc(S(=O)(=O)Cc2ccc3c(c2)CCNC3)cc1 [H1029, 1-benzyl-3-(4-(((1,2,3,4-tetrahydroisoquinolin-6-yl)methyl)sulfonyl)phenyl)urea] | – | – | 332 | 188 nM
CC(NC(=O)Nc1ccc(S(=O)(=O)Cc2ccc3c(c2)CCNC3)cc1)c1ccccc1Cl (stereo not drawn) [H1041, 1-(1-(2-chlorophenyl)ethyl)-3-(4-(((1,2,3,4-tetrahydroisoquinolin-6-yl)methyl)sulfonyl)phenyl)urea] | – | – | 17.4 | 55.5 nM

Source: patent publication US10501479B2, “Benzenesulfonyl-asymmetric ureas and medical uses thereof” (HELSINN HEALTHCARE SA, priority 2016, dated 2019)
